Values of other authors, collected in US20260191834A1, “PHARMACEUTICAL COMBINATION FOR THE TREATMENT OF MULTIPLE MYELOMA, MONOCLONAL GAMMOPATHY OF UNDETERMINED SIGNIFICANCE, AND SMOLDERING MULTIPLE MYELOMA” (priority 2022, published 2026).

CC[C@H]1OC(=O)[C@H](C)[C@@H](O[C@H]2C[C@@](C)(OC)[C@@H](O)[C@H](C)O2)[C@H](C)[C@@H](O[C@@H]2O[C@H](C)C[C@H](N(C)C)[C@H]2O)[C@](C)(OC)C[C@@H](C)C(=O)[C@H](C)[C@@H](O)[C@]1(C)O [clarithromycin, Clarithromycin]
efficacy for treating multiple myeloma (as an add-on to chemotherapies): reported and confirmed | efficacy for Multiple Myeloma (given alone as a single treatment): no efficacy
